Measurements: ChEMBL document CHEMBL3885861, “Open TG-GATES”

Organism: Rattus norvegicus
Experiment: Open TG-GATES - Regimen: Single
Assay type: toxicity, organism-based, Sprague-Dawley
Parameters: regimen Single, gender Male, age 6 weeks
Conditions: in vivo, po, 200 mg/kg, route gavage, dose level High; for APTT / Bas / Eos / Fbg / Hb / Ht / Lym / MCH / MCHC / MCV / Mono / Neu / PT / Plat / RBC / Ret / WBC: tissue Blood; for KIDNEY_L / KIDNEY_R / KIDNEY_TOTAL: tissue Kidney; for LIVER: tissue Liver; for A/G / ALP / ALT / AST / BUN / CRE / Ca / Cl / DBIL / GLC / IP / K / LDH / Na / PL / RALB / TBIL / TC / TG / TP / gamma-GTP: tissue Plasma

Cn1c(=O)c2[nH]cnc2n(C)c1=O.O [THEOPHYLLINE]
TERMINAL_BW (3 h): 215.6 g
APTT (3 h): 22.6 s
Bas (3 h): 0%
Eos (3 h): 1%
Fbg (3 h): 278 mg/dL
Hb (3 h): 12.3 g/dL
Ht (3 h): 37.4%
Lym (3 h): 67.2%
MCH (3 h): 20.1 pg
MCHC (3 h): 32.9%
MCV (3 h): 60.9 fL
Mono (3 h): 3%
Neu (3 h): 28%
PT (3 h): 15.9 s
Plat (3 h): 113.5 x10_4/uL
RBC (3 h): 614.2 x10_4/ul
Ret (3 h): 7.9%
WBC (3 h): 58.9 x10_2/uL
KIDNEY_L (3 h): 0.9 g
KIDNEY_R (3 h): 0.9 g
KIDNEY_TOTAL (3 h): 1.8 g
LIVER (3 h): 9.1 g
A/G (3 h): 1.3
ALP (3 h): 1241.4 IU/L
ALT (3 h): 43.8 IU/L
AST (3 h): 93.6 IU/L
BUN (3 h): 13.8 mg/dL
CRE (3 h): 0.1 mg/dL
Ca (3 h): 10 mg/dL
Cl (3 h): 104.4 meq/L
DBIL (3 h): 0 mg/dL
GLC (3 h): 202.8 mg/dL
IP (3 h): 7.2 mg/dL
K (3 h): 3.2 meq/L
LDH (3 h): 215.8 IU/L
Na (3 h): 136.8 meq/L
PL (3 h): 109.8 mg/dL
RALB (3 h): 3.1 g/dL
TBIL (3 h): 0.014 mg/dL
TC (3 h): 66.8 mg/dL
TG (3 h): 20 mg/dL
TP (3 h): 5.4 g/dL
gamma-GTP (3 h): 1.8 IU/L
TERMINAL_BW (6 h): 216 g
APTT (6 h): 22.3 s
Bas (6 h): 0%
Eos (6 h): 0.2%
Fbg (6 h): 329.2 mg/dL
Hb (6 h): 13.1 g/dL
Ht (6 h): 39.7%
Lym (6 h): 58.6%
MCH (6 h): 20.6 pg
MCHC (6 h): 33.1%
MCV (6 h): 62.3 fL
Mono (6 h): 3.6%
Neu (6 h): 35.6%
PT (6 h): 15.5 s
Plat (6 h): 123.7 x10_4/uL
RBC (6 h): 636.8 x10_4/ul
Ret (6 h): 7.6%
WBC (6 h): 75.8 x10_2/uL
KIDNEY_L (6 h): 1 g
KIDNEY_R (6 h): 1 g
KIDNEY_TOTAL (6 h): 1.9 g
LIVER (6 h): 9.5 g
A/G (6 h): 1.3
ALP (6 h): 1423 IU/L
ALT (6 h): 46.2 IU/L
AST (6 h): 111.4 IU/L
BUN (6 h): 13.8 mg/dL
CRE (6 h): 0.2 mg/dL
Ca (6 h): 10.4 mg/dL
Cl (6 h): 108.2 meq/L
DBIL (6 h): 0 mg/dL
GLC (6 h): 206.6 mg/dL
IP (6 h): 6.8 mg/dL
K (6 h): 3.5 meq/L
LDH (6 h): 212.6 IU/L
Na (6 h): 140.2 meq/L
PL (6 h): 127 mg/dL
RALB (6 h): 3.4 g/dL
TBIL (6 h): 0.016 mg/dL
TC (6 h): 72 mg/dL
TG (6 h): 22.2 mg/dL
TP (6 h): 6.1 g/dL
gamma-GTP (6 h): 1.4 IU/L
TERMINAL_BW (9 h): 212.2 g
APTT (9 h): 24.6 s
Bas (9 h): 0%
Eos (9 h): 0%
Fbg (9 h): 335.8 mg/dL
Hb (9 h): 12.9 g/dL
Ht (9 h): 38.7%
Lym (9 h): 69.4%
MCH (9 h): 20.3 pg
MCHC (9 h): 33.4%
MCV (9 h): 60.9 fL
Mono (9 h): 1.4%
Neu (9 h): 28.6%
PT (9 h): 15.5 s
Plat (9 h): 120.5 x10_4/uL
RBC (9 h): 634.8 x10_4/ul
Ret (9 h): 7.6%
WBC (9 h): 51.8 x10_2/uL
KIDNEY_L (9 h): 0.9 g
KIDNEY_R (9 h): 0.9 g
KIDNEY_TOTAL (9 h): 1.8 g
LIVER (9 h): 8.7 g
A/G (9 h): 1.3
ALP (9 h): 1474.4 IU/L
ALT (9 h): 38.8 IU/L
AST (9 h): 86.2 IU/L
BUN (9 h): 12 mg/dL
CRE (9 h): 0.2 mg/dL
Ca (9 h): 10.8 mg/dL
Cl (9 h): 105 meq/L
DBIL (9 h): 0 mg/dL
GLC (9 h): 193.6 mg/dL
IP (9 h): 7.1 mg/dL
K (9 h): 3.5 meq/L
LDH (9 h): 182.8 IU/L
Na (9 h): 139 meq/L
PL (9 h): 141 mg/dL
RALB (9 h): 3.4 g/dL
TBIL (9 h): 0.026 mg/dL
TC (9 h): 77.4 mg/dL
TG (9 h): 30.6 mg/dL
TP (9 h): 6.2 g/dL
gamma-GTP (9 h): 1.2 IU/L
TERMINAL_BW (24 h): 224.5 g
APTT (24 h): 21.6 s
Bas (24 h): 0%
Eos (24 h): 0.4%
Fbg (24 h): 370.4 mg/dL
Hb (24 h): 13.9 g/dL
Ht (24 h): 41.2%
Lym (24 h): 70.2%
MCH (24 h): 20.7 pg
MCHC (24 h): 33.6%
MCV (24 h): 61.4 fL
Mono (24 h): 3.2%
Neu (24 h): 24%
PT (24 h): 16.3 s
Plat (24 h): 124.1 x10_4/uL
RBC (24 h): 670.4 x10_4/ul
Ret (24 h): 7%
WBC (24 h): 103.6 x10_2/uL
KIDNEY_L (24 h): 0.9 g
KIDNEY_R (24 h): 1 g
KIDNEY_TOTAL (24 h): 1.9 g
LIVER (24 h): 9.4 g
A/G (24 h): 1.2
ALP (24 h): 1552.6 IU/L
ALT (24 h): 44.8 IU/L
AST (24 h): 76.2 IU/L
BUN (24 h): 16.4 mg/dL
CRE (24 h): 0.2 mg/dL
Ca (24 h): 11.2 mg/dL
Cl (24 h): 104.4 meq/L
DBIL (24 h): 0 mg/dL
GLC (24 h): 186.4 mg/dL
IP (24 h): 8.4 mg/dL
K (24 h): 4 meq/L
LDH (24 h): 180 IU/L
Na (24 h): 141.6 meq/L
PL (24 h): 129.8 mg/dL
RALB (24 h): 3.1 g/dL
TBIL (24 h): 0.018 mg/dL
TC (24 h): 75 mg/dL
TG (24 h): 38.8 mg/dL
TP (24 h): 5.6 g/dL
gamma-GTP (24 h): 1.4 IU/L
